From ChEMBL document CHEMBL2046338, “Synthesis and antimalarial activity of calothrixins A and B, and their N-alkyl derivatives” (Bioorg Med Chem Lett, 2012)

System: Plasmodium falciparum
Experiment: Antimalarial activity against chloroquine sensitive Plasmodium falciparum FCR-3
Type: functional
Conditions: FCR-3/Gambia

| IC50 | Structure (SMILES) |
| --- | --- |
| 6400 nM | CC(C)n1c2c(c3ccccc31)C(=O)c1cnc3ccccc3c1C2=O |
| 330 nM | O=C1c2cnc3ccccc3c2C(=O)c2c1c1ccccc1n2CCO |
| 380 nM | Cn1c2c(c3ccccc31)C(=O)c1c[n+]([O-])c3ccccc3c1C2=O |
| 380 nM | CCn1c2c(c3ccccc31)C(=O)c1c[n+]([O-])c3ccccc3c1C2=O |
| 320 nM | CC(C)n1c2c(c3ccccc31)C(=O)c1c[n+]([O-])c3ccccc3c1C2=O |
| 250 nM | O=C1c2c[n+]([O-])c3ccccc3c2C(=O)c2c1c1ccccc1n2CCO |
| 490 nM | Cn1c2c(c3ccccc31)C(=O)c1cnc3ccccc3c1C2=O |
| 2200 nM | CCn1c2c(c3ccccc31)C(=O)c1cnc3ccccc3c1C2=O |
| 185 nM | O=C1c2c[n+]([O-])c3ccccc3c2C(=O)c2[nH]c3ccccc3c21 [CALOTHRIXIN A] |
| 120 nM | O=C1c2[nH]c3ccccc3c2C(=O)c2cnc3ccccc3c21 [CALOTHRIXIN B] |
